Assays:
[1] = Storage stability in human plasma, LC-MS/MS after plasma precipitation; assay type: in vitro ADME; conditions: for Stability 4 °C / Stability AS (autosampler) / Stability −20 °C / Stability BT (benchtop): 24 h; for Stability FT (freeze-thaw): freeze-thaw cycles; for Stability BT (benchtop): room temperature
Description: To assess stability, low and high concentrations of all analytes were subjected to different storage conditions. […] For determination of long-term stability, samples were stored in either plasma or DMEM at –80 °C for 90 and 91 days, respectively. To measure short-term stability, samples were stored at room temperature, in an autosampler, at 4 °C, and at –20 °C for 24 h. In addition, freeze-thaw cycles were performed according to FDA guidance for the standard solutions. For comparison, at least three freshly prepared samples were prepared for each concentration level. With the exception of autosampler stability, the internal standard was always added to all samples before sample processing was started.
After mixing the 1.5 µM internal standard and the plasma sample, protein precipitation was commenced. Next, 190 µL of acetonitrile and 50 µL of 0.5 M sulfuric acid buffer were added. The tubes were then shaken at 1400 rpm for 5 min followed by centrifugation at 14,000 rpm for 5 min. Subsequently, 195 µL of the supernatant was transferred to an LC tube and analyzed.
To assess stability, low and high concentrations of all analytes were exposed to different storage conditions. To determine long-term stability, samples were stored in either plasma or DMEM at −80 °C for 90 and 91 days, respectively. To determine short-term stability, samples were stored for 24 h on the bench at room temperature, in the autosampler, at 4 °C, and at −20 °C. In addition, freeze-thaw cycles were performed for the standard solutions according to FDA guidance. At least three freshly prepared samples per concentration level were prepared for comparison. With the exception of the stability test in the autosampler, the internal standard was always added to all samples before sample processing was started. However, to avoid concentration fluctuations due to possible degradation of the analytes, stock solutions were prepared twice a week and stored at −20 °C. Each storage condition was examined in the dark. For all conditions studied, n = 3–6 replicates were prepared.

[2] = Quantification of KD87 in plasma of mice after intraperitoneal injection; assay type: in vivo; conditions: male, NSG (NOD.Cg-Prkdc^scid Il2rg^tm1Wjl/SzJ), mouse, ip, 20 mg/kg, 20 mg/kg intraperitoneal, mean ± SD n = 8
Description: To apply the method validated for plasma, an animal experiment was performed in which KD87 (20 mg/kg body weight) was injected intraperitoneally into NOD.Cg-Prkdc^scid Il2rg^tm1Wjl/SzJ (NSG) mice followed by determination of the plasma concentration of KD87 at two fixed time points, i.e., 30 and 60 min, after administration. For this initial investigation, KD87 was selected because it has shown viability-reducing effects on a large panel of tumor cells both in the present study and in a previous study, making it a good candidate for future in vivo experiments.
Before starting plasma extraction and protein precipitation, 10 µL of the sample plasma was mixed with 40 µL of human plasma. After appropriate sample preparation by protein precipitation or liquid-liquid extraction, KD87 was successfully detected and quantified by LC-MS/MS. Here, for each blood draw, two separate plasma aliquots were extracted or precipitated and subsequently measured. In addition, the MRM transitions of the aglycone KD88 were monitored during the measurement to observe possible deglycosylation of KD87. […] Individual concentrations are presented for each mouse separately (Figure 5A,B) and as averages of the four treated mice (Figure 5C). For protein precipitation, a concentration of 1.89 ± 0.30 µM was determined 30 min after intraperitoneal injection, increasing to 2.93 ± 0.36 µM after 60 min (Figure 5C). Similar values are obtained after liquid-liquid extraction of plasma sample, which yielded a concentration of 2.19 ± 0.32 µM and 3.46 ± 0.50 µM after 30 and 60 min, respectively (Figure 5C).
Figure 5 Quantification of KD87 in plasma of mice 30 and 60 min after intraperitoneal injection of KD87 (20 mg/kg body weight). Prior to sample processing, mouse plasma was diluted 1:5 with human plasma. Shown are the individual values of KD87 in mouse plasma (A) after protein precipitation and (B) after liquid-liquid extraction, as well as (C) the average KD87 concentration values of all four mice for both processing methods. (A,B): The values of two separately processed plasma aliquots of one blood sample per mouse are shown. (C): The bar chart summarizes the results of measurements from panels (A,B), expressed as mean ± standard deviation (SD) of n = 8 values per column.
For experiments, four 13-week-old male NSG mice with a body weight between 20 and 30 g were used. KD87 was administered via intraperitoneal injection at a dose of 20 mg/kg body weight. For this purpose, KD87 was dissolved in ethanol and Cremophore EL (1:1) to a concentration of 6 mg/mL, and diluted further in sterile saline solution (NaCl 0.9%, B. Braun Melsungen AG, Melsungen, Germany) to a final concentration of 2 mg/mL. Per mouse, a total volume of 10 mL/kg of body weight was administered. […]

Stability 4 °C ([1]; 2.0 nM) [%] | Stability AS (autosampler) ([1]; 2.0 nM) [%] | Stability −20 °C ([1]; 2.0 nM) [%] | Stability FT (freeze-thaw) ([1]; 2.0 nM) [%] | Stability BT (benchtop) ([1]; 2.0 nM) [%] | Stability 4 °C ([1]; 167 nM) [%] | Stability AS (autosampler) ([1]; 167 nM) [%] | Stability −20 °C ([1]; 167 nM) [%] | Stability FT (freeze-thaw) ([1]; 167 nM) [%] | Stability BT (benchtop) ([1]; 167 nM) [%] | concentration at 30 min ([2]; liquid-liquid extraction) [nM] | concentration at 30 min ([2]; protein precipitation) [nM] | concentration at 60 min ([2]; liquid-liquid extraction) [µM] | concentration at 60 min ([2]; protein precipitation) [µM] | Structure (SMILES)
81.3 ± 3.4 | 97.6 ± 8.0 | 90.1 ± 5.7 | 107.9 ± 4.9 | 57.5 ± 4.1 | 85.5 ± 1.9 | 99.6 ± 4.1 | 96.3 ± 2.3 | 99.5 ± 3.8 | 70.3 ± 3.2 | – | – | – | – | O=C1/C(=C2/C(=O)N([C@@H]3O[C@H](CO)[C@@H](O)[C@H](O)[C@@H]3O)c3ccccc32)Sc2ccccc21 [KD85, 3-[3′-oxo-benzo[b]thiophene-2′-(Z)-ylidene]-1-(β-D-mannopyranosyl)-oxindole]
81.4 ± 3.1 | 105.7 ± 6.7 | 94.6 ± 2.8 | 98.8 ± 5.6 | 64.3 ± 5.6 | 84.5 ± 2.0 | 99.9 ± 4.8 | 92.6 ± 2.6 | 97.9 ± 4.1 | 75.0 ± 3.5 | 2190 ± 320 | 1890 ± 300 | 3.46 ± 0.5 | 2.93 ± 0.36 | O=C1/C(=C2/C(=O)N([C@@H]3O[C@H](CO)[C@@H](O)[C@H](O)[C@H]3O)c3ccccc32)Sc2ccccc21 [KD87, 3-[3′-oxo-benzo[b]thiophen-2′-(Z)-ylidene]-1-(β-D-glucopyranosyl)-oxindole]

From publication PMC9101087, “A Sensitive LC-MS/MS Method for the Simultaneous Determination of Two Thia-Analogous Indirubin N-Glycosides and Indirubin-3′-Monoxime in Plasma and Cell Culture Medium” (Molecules, 2022)
